{"source": "patent US20090197853A1", "about": "“METHODS AND COMPOSITIONS OF TREATING CANCER” (priority 2005, published 2009)", "key": {"Thioredoxin reductase": {"system": "Thioredoxin reductase", "assay": "Lipoate reduction (thioredoxin reductase activity) in intact A549 cells", "format": "cell-based, human", "settings": "A549; actinomycin D 2.5 μg/mL or cycloheximide 10 μg/mL 1 hour prior, BSO 100 μM 24 hours prior", "method": "Methods: Lipoate Reduction. Thioredoxin reductase activity was assessed by measuring the rate of lipoate reduction. In brief, A549 or PC3 cells (10,000 cells/well) were plated on 96-well plates and allowed to adhere overnight and grow two additional days until confluent. Cells were treated with MGd, zinc, or 5% mannitol for 2-4 hours, as indicated. Medium was removed, cells were washed with Hanks Balanced Salt Solution (HBSS), and a solution of 5 mM lipoic acid and 1 mM 5,5′-dithiobis(2-nitrobenzoic acid) in HBSS (100 μL/well) was added. Plates were incubated at ambient temperature in the dark. At chosen time intervals, plate absorbance was measured at 405-650 nm. Plate absorbances were normalized to wells containing neither exogenous zinc nor texaphyrin complex to allow plate-to-plate comparison. In some experiments, L-buthionine-[S,R]-sulfoximine (BSO, 100 μM) was added 24 hours prior to MGd or zinc treatment, to inhibit any contribution to lipoate reduction made by glutathione-dependent pathways (28). Actinomycin D (2.5 μg/mL) or cycloheximide (10 μg/mL), where present, was added 1 hour prior to texaphyrin or zinc treatment. Viability was checked on parallel plates using the tetrazolium dye 3-(4,5-dimethylthiazol-2-yl)-5-(3-carboxymethoxyphenyl)-2-(4-sulfophenyl)-2H-tetrazolium (MTS) following the manufacturers protocol (Promega Corp.)."}, "[1]": {"system": "metallothionein gene family members and ZnT1", "assay": "Northern blot analysis, A549 cultures", "format": "cell-based, human", "settings": "for Metallothionein transcript levels: A549, 24 hours, 50 μM MGd, Zn(OAc)2 100 μM, CdCl2 50 μM, FIG. 2B", "method": "Methods: Northern Blot Analysis—Plateau phase cultures of A549 cells were prepared as described above, except that T-25 flasks were used, and the number of cells initially plated scaled accordingly. Cultures were treated with 50 μM MGd, 5 μM Gd(OAc)3 or 5% mannitol for 4 hours, whereupon cultures were washed twice with PBS and RNA harvested as above. Alternatively, 7-day plateau phase A549 or PC3 cultures were treated with 50 μM MGd, 50-100 μM Zn(OAc)2, 50 μM CdCl2 or 5% mannitol for 24 hours (A549) or 4 hours (PC3) prior to washing and RNA analysis. Exponential phase Ramos cultures were treated for 6 hours. Northern blots were conducted and analyzed. Radio labeled metallothionein probe, designed to bind to a 113-bp region of 3′-UTR sequences from multiple metallothionein gene family members, was generated using 5′-[…]-3′ (forward) and 5′-[…]-3′ (reverse) PCR primers and the NEBlot kit (New England Biolabs, Inc.). Radio labeled ZnT1 probe was generated in a similar fashion using 5′-[…]-3′ (forward) and 5′-[…]-3′ (reverse) primers."}, "A549 cells": {"system": "A549 cells", "assay": "Cell viability by propidium iodide exclusion, A549", "settings": "A549, 24 hours; Zn(OAc)2 100 μM, CdCl2 50 μM, MGd 50 μM", "protocol": "Methods: Cellular Viability. Cell viability was determined by using propidium iodide (PI) flow cytometric analysis. Cells from plateau phase cultures grown in T-25 flasks were harvested as described above, except that cells present in the growth medium and wash solution were isolated by centrifugation and included in the analysis. Cells were resuspended in 1 mL PBS, an aliquot of 3×10^5 cells transferred to a 4 mL tube, and the cells isolated by centrifugation. Cell pellets were resuspended in PBS supplemented with 2 μg/mL propidium iodide (Sigma), incubated for 5 minutes at ambient temperature, and subjected to flow cytometric analysis. Flow cytometry was performed on a FACSCalibur instrument and data were analyzed using the CellQuest Pro software package (BD Biosciences)."}, "Ramos cells [2]": {"system": "Ramos cells", "assay": "Cell cycle analysis (BrdU / 7-AAD), Ramos", "format": "cell-based", "settings": "for Cell cycle distribution / progression: Ramos; for BrdU incorporation into DNA: comparison treatments", "method": "Methods: […] Thirty minutes prior to harvest, cultures were treated with 5-bromo-2′-deoxyuridine (BrdU) at a final concentration of 10 μM. Cells were isolated by centrifugation, washing once with 0.5% BSA in PBS, and the resulting cell pellets fixed using 0.5 mL Cytofix/Cytoperm reagent (BD Biosciences). […] Cells were stained using a fluorescein-conjugated anti-BrdU antibody (clone PRB1, E-Bioscience, San Diego, Calif.) and 7-AAD. Cell cycle occupancy was analyzed by flow cytometry using fluorescein signal as a measure of DNA synthesis and 7-AAD signal as a measure of DNA content. […] L. Shepherd & Assoc., San Fernando, Calif.)."}, "HIF-1α": {"system": "HIF-1α", "assay": "HIF-1α sandwich ELISA, Ramos", "format": "cell-based", "settings": "four hours", "method": "Methods: Total HIF-1α protein was detected by sandwich ELISA using the DuoSet IC™ HIF-1α ELISA kit obtained from R&D Systems (Minneapolis, Minn.). All incubations were carried out at ambient temperature. Briefly, 96-well plates were coated with HIF-1α capture antibody overnight prior to blocking with 5% BSA in wash buffer. Protein lysates (50 μg protein per well prepared according to the manufacturer's instructions) were added for 2 hours, whereupon plates were washed and a biotinylated detection antibody specific for HIF-1α was added. A streptavidin-horseradish peroxidase format was used for detection. The optical density at 450 minus […] was measured using a microplate reader (SpectraMax Plus, Molecular Devices, Palo Alto, Calif.). HIF-1α concentrations were calculated by linear regression using a standard curve prepared from HIF-1α standard supplied with the ELISA kit."}, "Ramos cells [3]": {"system": "Ramos cells", "assay": "Intracellular free zinc (FluoZin-3 fluorescence), Ramos", "format": "cell-based", "settings": "hydrogen peroxide treatment", "method": "Methods: Intracellular Free Zinc. The concentration of intracellular free zinc was assessed using the ion-specific fluorescent probe, FluoZin-3-AM™ (FluoZin-3, Molecular Probes, Inc.). […] Following treatment, cells were isolated by centrifugation. Cell pellets were washed and re-suspended in a solution of 0.5% BSA in PBS."}, "Ramos cells [4]": {"system": "Ramos cells", "assay": "Reactive oxygen species (DCFA to DCF), Ramos", "format": "cell-based", "settings": "single agents", "method": "Methods: Reactive oxygen species were measured in live cells as intracellular peroxides by monitoring the oxidation of 2′,7′-dichlorofluorescin-diacetate (DCFA) to 2′,7′-dichlorofluorescein (DCF) (Molecular Probes). Cells (1×10^6 per mL) were incubated in a solution of 1 μg per mL DCFA in 0.5% BSA in HBSS for 15 minutes at 37° C. Two mL additional 0.5% BSA in HBSS was added, cells were isolated by centrifugation, and the pellet re-suspended in a solution of 50 μg/mL 7-aminoactinomycin D (7-AAD) in 0.5% BSA in HBSS. Cell suspensions were incubated at ambient temperature for 2 to 3 minutes, and stored on ice until analysis. The fluorescent intensity in live (i.e., 7-AAD impermeable) cells was analyzed by flow cytometry."}}, "note": "Entries after “also recorded” stand apart in the source; their conditions may differ. Starred links: 1 amine or outer side, 2 acyl side, 3 side chain; linkers in the order of their positions; H or OH if unused. Positions of bridges follow the written chain, without caps; N, C: chain ends. Non-standard residues stand in square brackets, D forms with d. Residues, ends and D or L forms follow the SMILES beside them. Chains are numbered I, II in the order given. Actinocin(9to1) = Cc1c2oc3c(C)ccc(C(=O)[*:1])c3nc-2c(C(=O)[*:2])c(N)c1=O; NMeV = CN[C@H](C(=O)O)C(C)C; Sar = CNCC(=O)O", "data": [{"smiles": "CCCCS(=N)(=O)CCC(N)C(=O)O", "note": "[BSO, L-buthionine-[S,R]-sulfoximine, reference compound]", "values": [{"measurement": "Effect of pre-treatment on the inhibition of lipoate reduction by MGd and zinc", "setting": "Thioredoxin reductase", "value": "increased the degree of inhibition"}]}, {"smiles": "CC(=O)[O-].CC(=O)[O-].CC(=O)[O-].[Gd+3]", "note": "[Gd(OAc)3, gadolinium acetate, reference compound]", "values": [{"measurement": "Induction of metallothionein gene family members and ZnT1 (Northern blot)", "setting": "[1]; A549 plateau phase, 4 hours, 50 μM MGd or 5 μM Gd(OAc)3", "value": "induced only in cultures treated with MGd"}]}, {"smiles": "[Cl][Cd][Cl]", "note": "[CdCl2, reference compound]", "values": [{"measurement": "Metallothionein transcript levels", "setting": "[1]", "value": "significant increase"}, {"measurement": "Metallothionein transcript levels", "setting": "[1]; listed as cadmium", "value": "raised; also recorded: high levels of metallothionein transcription"}, {"measurement": "Cellular viability (propidium iodide exclusion)", "setting": "A549 cells", "value": "ca. 53%"}]}, {"smiles": "NC(=O)NO", "note": "[hydroxyurea]", "values": [{"measurement": "Cell cycle distribution / progression", "setting": "Ramos cells [2]", "value": "allowed passage through G2M"}, {"measurement": "BrdU incorporation into DNA", "setting": "Ramos cells [2]", "value": "inhibited BrdU incorporation"}]}, {"smiles": "Cc1c2oc3c(C)ccc(C(=O)N[C@@H]4C(=O)N[C@H](C(C)C)C(=O)N5CCC[C@H]5C(=O)N(C)CC(=O)N(C)[C@@H](C(C)C)C(=O)O[C@@H]4C)c3nc-2c(C(=O)N[C@@H]2C(=O)N[C@H](C(C)C)C(=O)N3CCC[C@H]3C(=O)N(C)CC(=O)N(C)[C@@H](C(C)C)C(=O)O[C@@H]2C)c(N)c1=O", "note": "[actinomycin D, reference compound] (I: T[dV]P[Sar][NMeV] / II: T[dV]P[Sar][NMeV]; ester I:1-I:C, II:1-II:C; linker I:N-II:N via Actinocin(9to1))", "values": [{"measurement": "Effect of pre-treatment on the inhibition of lipoate reduction by MGd and zinc", "setting": "Thioredoxin reductase", "value": "restored the inhibitory effect"}]}, {"smiles": "CC(=O)[O-].CC(=O)[O-].[Co+2]", "note": "[cobalt acetate]", "values": [{"measurement": "Increase in total cellular HIF-1α levels", "setting": "HIF-1α", "value": "increased"}]}, {"smiles": "OO", "note": "[hydrogen peroxide, reference compound]", "values": [{"measurement": "FluoZin-3 fluorescence", "setting": "Ramos cells [3]", "value": "increased"}, {"measurement": "DCF signal", "setting": "Ramos cells [4]", "value": "increased"}]}, {"smiles": "O=c1[nH]c(=O)n([C@H]2C[C@H](O)[C@@H](CO)O2)cc1F", "note": "[5-fluoro-2′-deoxyuridine]", "values": [{"measurement": "Cell cycle distribution / progression", "setting": "Ramos cells [2]", "value": "accumulation of cells in G1/S"}, {"measurement": "BrdU incorporation into DNA", "setting": "Ramos cells [2]", "value": "permitted BrdU incorporation into DNA"}]}, {"smiles": "C[C@@H]1C[C@@H]([C@H](O)CC2CC(=O)NC(=O)C2)C(=O)[C@@H](C)C1", "note": "[cycloheximide, reference compound]", "values": [{"measurement": "Effect of pre-treatment on the inhibition of lipoate reduction by MGd and zinc", "setting": "Thioredoxin reductase", "value": "restored the inhibitory effect"}]}]}
